Assays:
[1] = Reactivity with the amino acid cysteine (LCMS); assay type: physicochemical; conditions: LCMS analysis
From the text: Almost all reported small-molecule inhibitors of acid ceramidase are covalent in their mechanism of action by reaction with cysteine 143 [14, 15, 16, 17, 18, 19, 20, 21, 22]. In some cases, the covalent warhead itself is linked to promiscuity and intrinsic chemical instability. To probe whether 1 was chemically reactive in this way, a sample was stirred with the amino acid cysteine.

[2] = target: T1, acid ceramidase (Homo sapiens, UniProt Q13510); assay: Preincubation acid ceramidase activity assay; assay type: biochemical; conditions: pre-incubated at 0, 1 and 3 h at IC50 concentration, 37°C
T1 construct: if using cell lysate, each well contained 7.45 µL assay buffer; endogenous in cells; host or cells: HEK293 cell lysate (supernatant after freeze-thaw and homogenisation)
T1 sequence (Q13510 22-395): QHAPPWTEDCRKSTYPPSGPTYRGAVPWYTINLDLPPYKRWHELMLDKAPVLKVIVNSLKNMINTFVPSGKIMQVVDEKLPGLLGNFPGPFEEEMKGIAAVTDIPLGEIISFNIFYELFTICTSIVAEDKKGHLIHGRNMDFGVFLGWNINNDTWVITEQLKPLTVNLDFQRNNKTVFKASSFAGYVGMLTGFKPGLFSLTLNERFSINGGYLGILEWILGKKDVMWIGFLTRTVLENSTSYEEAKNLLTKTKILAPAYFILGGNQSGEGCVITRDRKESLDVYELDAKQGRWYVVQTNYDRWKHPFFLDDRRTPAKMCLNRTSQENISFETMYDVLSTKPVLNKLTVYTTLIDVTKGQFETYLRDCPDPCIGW
From the text: A partially degraded sample was purified by reverse-phase chromatography to isolate the DMSO-addition species. Although only a small amount of material was isolated, ^1H NMR spectroscopic analysis was consistent with the proposed structure (Scheme 3). The ^1H NMR data, in particular, were in line with that reported for a related compound (3f, see Supplementary Material). Such reactivity has been reported between N-pivaloyloxybenzamides and sulfoxides in the presence of an iron catalyst. The decomposition reaction to form a sulfoximine reported in this paper should be of interest to the synthetic community as it proceeds cleanly at ambient temperature without the need for reagents nor a catalyst; however, further optimisation of the reaction is beyond the scope of this paper.
Cultured HEK293 cells were grown until 80-90% confluency, collected, and washed twice in PBS. Collected cell pellets were resuspended in 0.2 M sucrose solution and freeze-thawed three times before being homogenised using a syringe and 25 G needle. […] The supernatant was collected, and protein quantified using Bradford reagent. […]
To measure acid ceramidase activity, an assay previously described by Bedia et al., (2010) was miniaturised to a 384-well format. […] Fluorescence was measured using a microplate reader (PHERAstar FSX; BMG Labtech) at excitation and emission wavelengths of 350 nm and 450 nm […]

[3] = target: T1, acid ceramidase; assay: HTS acid ceramidase assay (modified reported assay, without Saposin D); assay type: biochemical
From the text: Despite continuing advances in structure-driven research, High-Throughput Screening (HTS) is still a valuable resource to find novel chemical starting points in drug discovery. Recently, the Medicines Discovery Institute initiated an HTS looking for small-molecule inhibitors of acid ceramidase, a lysosomal enzyme. […] This substantial increase in potency can be explained by the fact that to function properly, acid ceramidase requires a co-factor present in cells which was not present in the original HTS assay, Saposin D [4].

[4] = target: T1, acid ceramidase; assay: in-house cell lysate acid ceramidase inhibition assay (HEK293 cell lysate, RBM14-C12 substrate); assay type: biochemical
Protocol: Cultured HEK293 cells were grown until 80-90% confluency, collected, and washed twice in PBS. Collected cell pellets were resuspended in 0.2 M sucrose solution and freeze-thawed three times before being homogenised using a syringe and 25 G needle. Lysed cells were centrifuged at 17,000 g for 30 min at 4°C. The supernatant was collected, and protein quantified using Bradford reagent.
(§1) Acid ceramidase activity assay
(§2) To measure acid ceramidase activity, an assay previously described by Bedia et al., (2010) was miniaturised to a 384-well format. The enzymatic assay was carried out in black flat bottom 384-well plates. Briefly, if using cell lysate, each well contained 7.45 µL assay buffer (25 mM sodium acetate pH 4.5) and 0.05 µL 4 mM RBM14-C12 (Avanti, USA) in ethanol (20 µM final substrate concentration), 2 µg protein in 2.4 µL 0.2 M sucrose, and 0.1 µL compound (control wells contained 0.1 µL DMSO). If using purified acid ceramidase protein (Peak Proteins), the experimental set up was similar, but 100 nM protein was used, and the assay buffer contained 25 mM sodium acetate pH 4.5, 0.1% Pluronic F-127, 0.5 mM EGTA, 0.05% BSA, 1 mM TCEP. Blank wells contained the same reaction mixes but without the protein samples. The reaction started upon addition of the protein sample. The plate was incubated at 37°C for 3 h. The reaction was stopped upon addition of 10 µL fresh detection mix (2.5 mg/mL NaIO4 in 100 mM glycine/NaOH buffer pH 10.6) and the plate incubated for […]

[5] = target: T1, acid ceramidase; assay: purified protein acid ceramidase inhibition assay; assay type: biochemical; conditions: freshly synthesised sample
Protocol: as §1, §2

[6] = Stability in DMSO / d6-DMSO at room temperature (LCMS, 1H and 19F NMR); assay type: physicochemical; conditions: for stability of DMSO stock solution (in words): LCMS
Protocol: Key to this was running LCMS analysis on a d6-DMSO NMR sample that was left at room temperature for 6 weeks. Despite also degrading into the carboxylic acid 12, the mass of the other species was different by +6 Daltons compared to the non-deuterated sample. […] To monitor the speed of degradation, a fresh sample was analysed periodically by ^1H and ^19F NMR spectroscopy (Figure 4).

[7] = cell lysate assay, supplied (HTS library) samples, read-out: IC50

O=C(NOC(=O)c1ccc(N2CCCCCC2)c([N+](=O)[O-])c1)c1ccc(OC(F)F)cc1 [compound 1]
stability when stirred with cysteine (in words) [1]: slowly decomposed into two main chemical species
inhibition after pre-incubation (in words) [2]: time-dependent inhibition pattern expected of a covalent inhibitor
IC50 ([3]; library sample): 340 nM
IC50 ([4]; cell lysate assay with addition of EDTA, read-out: IC50): 7 nM
IC50 ([4]; cell lysate assay with addition of N,N,N′,N′-tetrakis(2-pyridinylmethyl)-1,2-ethanediamine (Zn2+ chelator), read-out: IC50): 8 nM
IC50 ([4]; cell lysate assay, freshly synthesised sample, read-out: IC50): 3.2 nM
IC50 [4, 7]: 11 nM
IC50 [5]: 163 nM
stability of DMSO stock solution (in words) [6]: slowly degraded into two species
estimated half-life ([6]; d6-DMSO, room temperature, 1H and 19F NMR integrations against time): just over two days

CC(C)(C)c1ccc(C(=O)NOC(=O)c2ccc(Cl)c(Cl)c2)cc1 [compound 2]
inhibition (in words) ([3]; Figure 1): moderate inhibition
IC50 [4, 7]: 237 nM

O=C=Nc1ccc(OC(F)F)cc1 [compound 7]
IC50 [4]: ~100000 nM
stability of DMSO stock solution (in words) [6]: fully hydrolysed to 8

O=C(Nc1ccc(OC(F)F)cc1)Nc1ccc(OC(F)F)cc1 [compound 8]
IC50 ([4]; cell lysate assay, read-out: IC50): ~100000 nM

O=C(O)c1ccc(N2CCCCCC2)c([N+](=O)[O-])c1 [compound 12]
activity (in words) ([4]; cell lysate assay): inactive

CS(C)(=O)=NC(=O)c1ccc(OC(F)F)cc1 [compound 13]
activity (in words) ([4]; cell lysate assay): no activity

From PMC11548001, “Beware of N-Benzoyloxybenzamides” (Molecules, 2024)
